In ChEMBL document CHEMBL1127189, “A facile synthesis of the novel Neurokinin A antagonist SR 48968” (Bioorg Med Chem Lett, 1993):

How the values were obtained:
Cavia porcellus [1] = experiment: Intraperitoneal dose required for inhibition of [Nle10]-NKA4-10 induced bronchoconstriction in guinea pig; type: functional; conditions: ip
Cavia porcellus [2] = experiment: Intravenous dose required for inhibition of [Nle10]-NKA4-10 induced bronchoconstriction in guinea pig; type: functional

## CC(=O)NC1(c2ccccc2)CCN(CC[C@H](CN(C)C(=O)c2ccccc2)c2ccc(Cl)c(Cl)c2)CC1 [SAREDUTANT]
Cavia porcellus [1]
  ED50: 0.35 mg/kg
Cavia porcellus [2]
  ED50: 0.037 mg/kg
